Reference: US12496301B2, “Use of androgen receptor degrader for the treatment of spinal and bulbar muscular atrophy” (Arvinas Operations, Inc., priority 2023, dated 2025)
“Also recorded” adds a separate entry of the source.

Columns and labels:
[1] = Efficacy in hAR100Q murine model of SBMA (body weight, grip strength, treadmill, survival); type: in vivo, mouse
Source text: (§1) Male mice harboring approximately 73±14 copies of full-length human AR harboring 100 CAG repeats in exon 1 (hAR100Q) (“hAR100Q mice”) were used in this study. hAR100Q mice were obtained from mice (C57BL/6J background) expressing heterozygous human […] AR100Q (AR100Q+/−) under the control of the cytomegalovirus immediate-early enhancer and the chicken beta-actin (pCAGGS) promoter. These transgenic lines were maintained, and the colony expanded by breeding with C57BL/6J (Jackson Laboratory) wild-type (WT) mice.
(§2) A total of […] hAR100Q and 20 littermate controls were used for this study. Each genotype was divided into two groups of 10 (control vs Compound A) giving a total of four separate groups (WT control, WT Compound A, hAR100Q control, and hAR100Q Compound A). All mice were fed control chow beginning at 4 weeks of age. At 5 weeks of age, treated groups were switched to Compound A-formulated chow and the remaining mice were fed control chow. Body weights were recorded weekly starting at 5 weeks of age.
(§3) Compound A was formulated at 100 parts per million (ppm) Compound A in rodent chow (Purina #5015). This dose level (100 ppm) approximates a 15 mg/kg dose for a mouse that weighs 20 g and consumes 3 g of chow per day. For control chow, rodent chow (Purina #5015) was re-pelleted in an identical manner to the Compound A-formulated chow.
(§4) A grip strength apparatus was utilized to measure the force exerted by the forepaws only, or all four paws of mice once per week beginning at 7 weeks of age. The apparatus was placed on a sturdy flat lab bench and the apparatus's grid wire mesh was used for all four paws. Individual mice grasped a wire mesh (all four paws) and were gently pulled by the base of their tail to measure their maximum force exerted to maintain their grip. The grip strength assay was conducted 6 times per mouse, for all four paws.
(§5) A Touchscreen Treadmill was utilized to analyze length of time running at increasing speeds until exhaustion. Individual mice ran on a flat treadmill with a graded acceleration protocol consisting of 10 meters (m)/min. for the first 40 min., with the speed increasing thereafter by increments of 1 m/min. every 10 min. for 30 min., and then finally increasing speed by increments of 1 m/min. every 5 min. until the mice were exhausted. The exhaustion was determined by 5 consecutive seconds or 20 overall seconds of failure to exercise (by staying on shock rods at the start of the treadmill). Treadmill training was performed for 2 days before the first week of testing. The training protocol on day 1 consisted of 5 min. at 8 m/min, while day 2 consisted of 5 min. at 8 m/min. followed by 5 min. at 10 m/min.
(§6) In the murine model of SBMA used here (hereafter referred to as hAR100Q mice), which also expresses endogenous mouse AR, approximately 73±14 copies of full-length human AR with 100 CAG repeats (hAR100Q) are driven by the pCAGGS promoter (Chivet, M. et al. 2020, Cells 9, 325). Heterologous expression of hAR100Q results in muscle atrophy, motor deficits, and premature death (Chivet, M. et al. 2020, Cells 9, 325). Symptom onset starts as early as 8 weeks of age and get progressively worse until week 13-14, at which time mice are euthanized because of extreme immobility. In this study, male hAR100Q mice and littermate controls (10 mice in each group) were fed vehicle chow or Compound A-formulated chow at an approximate dose of 15 mg/kg. In-diet dosing was used in lieu of PO dosing due to the fragile nature of this disease model. Compound A-formulated chow was introduced at 5 weeks of age. In addition to weekly weight measurements, mice were evaluated using behavioral assays, including weekly grip strength measurements and forced treadmill tests at 11 weeks of age.

[2] = test system: hAR100Q mice; test: as above; type: in vivo, mouse
Source text: as §1, §2, §3, §4, §5, §6

[3] = test system: human AR100Q; test: hAR100Q (polyQ-AR) degradation in muscle of hAR100Q mice, capillary immunoassay; type: in vivo
Method: (§7) Mouse endogenous AR, human AR100Q, and high molecular weight hAR100Q from hAR100Q mice were quantified by capillary immunoassay. Tissue lysates were prepared as described above using antibodies to AR and resolved by capillary electrophoresis (ProteinSimple). High molecular weight AR was quantified as the area under the curve (AUC) from 300 to 600 kDa.
(§8) A parallel cohort of hAR100Q mice was maintained in order to evaluate AR degradation at the 11-week timepoint. hAR100Q mice in this tissue cohort were fed chow identical to the mice that underwent muscle strength and endurance tests and were euthanized at 11-weeks of age.

[4] = target: T1, human AR100Q (Homo sapiens, UniProt P10275, INS80QQQQQQQQQQQQQQQQQQQQQQQQQQQQQQQQQQQQQQQQQQQQQQQQQQQQQQQQQQQQQQQQQQQQQQQQQQQQQ); test: as above; type: in vivo
T1 construct: full-length human AR harboring 100 CAG repeats in exon 1 (hAR100Q); from tissue; host or cells: LABC and quadriceps muscle of transgenic hAR100Q mice (C57BL/6J background, pCAGGS promoter)
Method: as §7, §8

T1 sequence (P10275 with tags, fused parts or gaps with the stated changes): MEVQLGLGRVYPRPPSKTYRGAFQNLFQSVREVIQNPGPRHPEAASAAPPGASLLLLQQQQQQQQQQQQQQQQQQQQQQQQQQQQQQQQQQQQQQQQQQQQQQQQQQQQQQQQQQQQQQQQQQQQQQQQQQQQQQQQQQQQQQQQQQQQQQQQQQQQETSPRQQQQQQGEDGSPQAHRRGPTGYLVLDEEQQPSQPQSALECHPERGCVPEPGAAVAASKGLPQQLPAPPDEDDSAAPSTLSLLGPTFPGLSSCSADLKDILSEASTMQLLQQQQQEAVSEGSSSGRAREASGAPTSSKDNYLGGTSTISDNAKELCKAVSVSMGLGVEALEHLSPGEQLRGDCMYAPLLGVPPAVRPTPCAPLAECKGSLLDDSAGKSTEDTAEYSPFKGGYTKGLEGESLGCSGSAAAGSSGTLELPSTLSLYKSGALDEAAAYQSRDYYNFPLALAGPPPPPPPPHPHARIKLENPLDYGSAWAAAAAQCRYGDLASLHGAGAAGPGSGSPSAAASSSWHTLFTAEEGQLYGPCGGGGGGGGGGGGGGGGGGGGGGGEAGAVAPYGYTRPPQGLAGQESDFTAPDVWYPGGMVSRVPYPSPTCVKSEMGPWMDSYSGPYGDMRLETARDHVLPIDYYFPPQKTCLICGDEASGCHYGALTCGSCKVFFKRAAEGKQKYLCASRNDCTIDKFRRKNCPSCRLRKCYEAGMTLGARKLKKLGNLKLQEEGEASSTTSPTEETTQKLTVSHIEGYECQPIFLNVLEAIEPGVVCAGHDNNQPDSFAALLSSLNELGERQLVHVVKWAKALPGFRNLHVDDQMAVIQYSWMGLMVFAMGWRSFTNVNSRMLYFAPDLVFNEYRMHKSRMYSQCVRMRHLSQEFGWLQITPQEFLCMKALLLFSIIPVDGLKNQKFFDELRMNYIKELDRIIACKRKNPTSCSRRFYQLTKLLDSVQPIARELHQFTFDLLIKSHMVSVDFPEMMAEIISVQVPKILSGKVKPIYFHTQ

## CC(C)N(CC1CCN(c2ncc(C(=O)N[C@H]3C(C)(C)[C@H](Oc4ccc(C#N)c(Cl)c4)C3(C)C)cn2)CC1)[C@H]1C[C@H](Oc2ccc3c(c2)C(=O)N(C2CCC(=O)NC2=O)C3=O)C1 (stereo partly drawn) [Compound A, N-((1r,3r)-3-(3-chloro-4-cyanophenoxy)-2,2,4,4-tetramethylcyclobutyl)-2-(4-((((1r,3r)-3-((2-(2,6-dioxopiperidin-3-yl)-1,3-dioxoisoindolin-5-yl)oxy)cyclobutyl)(isopropyl)amino)methyl)piperidin-1-yl)pyrimidine-5-carboxamide]
[1]; WT littermates, chow approx. 15 mg/kg, vs vehicle
  all paw grip strength in WT littermates: similar
[1]; WT littermates, week 11, vehicle versus compound chow
  muscle endurance, forced treadmill distance, WT littermates: No differences were observed
[1]; male WT littermates, formulated chow approx. 15 mg/kg
  body weight over time in WT littermates: no impact
[2]; hAR100Q mice, formulated chow, birth to euthanasia
  median lifespan: 151 days
[2]; hAR100Q mice, week 11, chow approx. 15 mg/kg
  muscle endurance, forced treadmill distance, hAR100Q mice: performed as well as WT littermates
[2]; hAR100Q mice, weekly from 7 weeks, chow approx. 15 mg/kg
  all paw grip strength in hAR100Q mice: delayed the decline and magnitude of grip strength decline
[2]; male hAR100Q mice, formulated chow approx. 15 mg/kg from 5 weeks of age, vs vehicle
  body weight over time in hAR100Q mice: rescued weight loss
[3]; LABC, 11 weeks of age, chow approx. 15 mg/kg
  reduction of monomeric hAR100Q (polyQ-AR) in LABC vs vehicle: 70%
[3]; quadriceps
  reduction of polyQ-AR (hAR100Q) in quadriceps: 43%
[3]; quadriceps, AR and polyQ-AR together
  AR/polyQ-AR degraded in the quadriceps muscle: 40-60%
[4]; LABC, 11 weeks of age
  reduction of high molecular weight (aggregated) hAR100Q in LABC: did not induce degradation; also recorded: did not reach significance
[4]; quadriceps
  reduction of high molecular weight polyQ-AR (HMW hAR100Q) in quadriceps: trended towards a reduction
